This note sets out measurements from patent US12414931B1 (priority 2024, dated 2025).

The structures appear in SMILES notation.

One data set concerns the target T1, purified recombinant KGA (Homo sapiens, UniProt O94925).
T1 construct: His6 (C); made in house; host or cells: E. coli Rosetta (DE3), pET28a(+)
T1 sequence (O94925 72-598): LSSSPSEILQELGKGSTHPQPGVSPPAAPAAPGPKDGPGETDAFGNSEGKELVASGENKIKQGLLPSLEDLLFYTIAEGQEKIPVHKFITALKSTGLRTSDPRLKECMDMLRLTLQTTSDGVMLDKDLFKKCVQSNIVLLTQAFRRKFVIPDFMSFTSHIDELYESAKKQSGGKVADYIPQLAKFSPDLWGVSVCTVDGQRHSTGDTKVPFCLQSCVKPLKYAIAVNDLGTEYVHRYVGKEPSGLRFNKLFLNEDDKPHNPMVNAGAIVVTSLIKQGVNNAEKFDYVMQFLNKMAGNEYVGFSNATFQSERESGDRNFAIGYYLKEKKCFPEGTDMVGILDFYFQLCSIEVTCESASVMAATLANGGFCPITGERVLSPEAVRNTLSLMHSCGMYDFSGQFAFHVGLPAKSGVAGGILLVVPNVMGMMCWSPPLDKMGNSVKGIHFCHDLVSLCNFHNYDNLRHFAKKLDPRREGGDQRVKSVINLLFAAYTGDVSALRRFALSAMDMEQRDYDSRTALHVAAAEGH
As to the kind of experiment: KGA activity inhibition assay, spectrophotometric (NADH production at 340 nm). In kind it is biochemical. The settings on record: 37° C., 30 min, 5 mM glutamine.

Data set [1] concerns MDA-MB-231 cells.
The target of another data set is purified KGA (Homo sapiens, UniProt O94925). The settings on record: read-out: apparent binding affinity (Kd).
For a further data set, the system named is MCF12A cells. It is filed as cell-based, human. Conditions: read-out: IC50 cell viability, normal breast cells.
Another data set concerns the target T2, KGA (Homo sapiens, UniProt O94925).
T2 construct: His6 (C); made in house; host or cells: E. coli Rosetta (DE3), pET28a(+)
T2 sequence (O94925 72-598): T1 sequence (O94925 72-598)
It is filed as biochemical.

Data set [2] deals with MDA-MB-231 cells. The source holds these as a separate data set.

For `NC(CCP(=O)(O)O)C(=O)O` (stereo not shown) [AP4, 2-amino-4-phosphonobutyric acid], at purified recombinant KGA, the “half-maximal inhibitory concentration (IC50) against KGA” value is “submillimolar range”.
On the same count and under the same terms, to `N[C@H](CC[As](=O)(O)O)C(=O)O` [AST-OH, hydroxyarsinothricin] belongs “submillimolar range”; to `[N-]=[N+]=CC(=O)CC[C@H](N)C(=O)O` [DON, 6-diazo-5-oxo-L-norleucine], “submillimolar range”.
The term IC50 denotes the concentration at which inhibition is half-maximal. For the molecule `NC(CC[As](O)O)C(=O)O` (stereo not shown) [R-AST-OH, trivalent hydroxyarsinothricin], the “cells that lost viability” value is recorded as “approximately 64%” in the data set on MDA-MB-231 cells [1] (10 µM) and approximately 47% with HCC1569 cells (10 µM). Further, the half-maximal inhibitory concentration (IC50) in the data set with MDA-MB-231 cells [1] (read-out: IC50 cell viability) was 5 µM; with HCC1569 cells (read-out: IC50 cell viability) it was 3 µM; in the data set on MCF12A cells it was 75 µM; on KGA (luminescent assay, 15 min preincubation with KGA, read-out: IC50 against KGA), 2 µM. Also, on purified KGA, the Kd was determined as 40 µM. Also, the “fold more effective inhibitor of KGA than Rox(III)” value on KGA (ratio of IC50 values) was determined as 4.5 fold. Besides, the “fold more effective inhibitor of KGA than pentavalent AST-OH” value at KGA (ratio of IC50 values) stood at 125 fold. Moreover, the “cell permeability (uptake of arsenicals)” value with MDA-MB-231 cells [2] is reported as “lowest permeability”.
